Measured values taken from patent US20060128792A1, “Deguelin as a chemopreventive agent for lung cancer” (priority 2002, published 2006).
Several values for one entry are separate records, joined by “and”; a condition that tells them apart may be missing. Equal entries are not always repeated.

Columns and labels:
H596 = assay: MTT assay, growth inhibition by deguelin or deguelin derivatives; type: cell-based; conditions: H596, 3 days
Cal6 = assay: as above; type: cell-based; conditions: 3 days
Chago = assay: as above; type: cell-based; conditions: 3 days
H322 = assay: as above; type: cell-based; conditions: H322, 3 days
[1] = system: premalignant (1799, 1198) and malignant (1170) HBE cell lines; assay: MTT assay, growth of premalignant and malignant HBE cell lines; type: cell-based; conditions: HBE, 72 h, read-out: IC50, growth of premalignant and malignant HBE cell lines
Text: Cells and Cell Cultures. […] Tumors developed 6 months later. […] (Klein-Szanto et al., 1992).

PI3K = PI3K assay (lipid kinase assay on immunoprecipitate of treated cells); type: cell-based; conditions: 1799 cells, 10^−7 M deguelin, 1 day
Protocol: PI3K Assay. 1799 cells cultured in KSFM containing 10^−7 M deguelin for different time periods were lysed in lysis buffer. PI3K was immunoprecipitated from 500 μg of cellular protein using pan-anti-p85 antibody (Upstate Biotechnology, Waltham, Mass.), which coprecipitates the p110 catalytic subunit of PI3K, and subsequent lipid kinase assay was performed as described previously (Sibilia et al., 2000). Briefly, the mixture was incubated with gentle rocking at 4° C. for 12 h, 10 mg of protein A-sepharose (Amersham Pharmacia Biotech) were added, and the incubation was continued for another 2 h. The immunoprecipitates were washed, in tandem, three times with lysis buffer, twice with 0.1 M Tris/HCl, pH 7.5, containing 0.5 M LiCl, and 10 μM sodium vanadate, and twice with 10 mM Tris/HCl, pH 7.5, containing 100 MM NaCl, 10 μM sodium vanadate, and 1 mM EDTA. Adequate amounts of the washed antibody conjugates, in 10 μl, were added to 80 μl of 30 mM Hepes, pH 7.5, containing 125 μM ATP, 10 μCi of [α-^32P] ATP, and 6.25 mM MgCl2, and the reaction was initiated by adding 20 μg of bovine brain extract (Type 1; Sigma) suspended in 10 μl of 30 mM Hepes, pH 7.5. […] The autoradiograms were scanned by a Photodyne image system and quantified using the NIH Image program (version 1.59).

ERK1/2 (MAPK) = assay: ERK 1/2 kinase assay (MBP phosphorylation, immunoprecipitate of treated cells); type: cell-based; conditions: 1799 cells, 10^−7 M deguelin
Protocol: ERK 1/2 Kinase assay. ERK1/2 activity was determined by analyzing MAPK-induced phosphorylation of myelin basic protein (MBP) as previously described (Lee et al., 2002). Briefly, 1799 cells cultured in KSFM containing 10^−7 M deguelin for different time periods were lysed in lysis buffer, and ERK-1 and -2 were immunoprecipitated from 100 μg of cell extracts with antibodies (1 μg) that recognize ERK-1 and -2 (Santa Cruz Biotechnology) by rotation at 4° C. for overnight. The total volume was adjusted to 0.5 ml with lysis buffer. Protein A sepharose beads (20 μl) (Amersham Pharmacia Biotech) were added and incubated at 4° C. for 2 hour. The beads were washed three times with lysis buffer and once with kinase buffer (20 MM Hepes [pH 7.5], 20 mM β-glycerol phosphate, 10 mM PNPP, 10 mM MgCl2, 1 mM dithiothreitol, 50 mM sodium vanadate). Kinase assays were performed by incubating the beads with 30 μl kinase buffer to which […], 5 μCi [γ^32P] ATP (2000 cpm/pmol), and 2 μg MBP (Cell Signaling Technology) were added. The kinase reaction was performed at 30° C. for 20 min. The samples were suspended in Laemmli buffer, boiled for 5 min, and the samples were analyzed by SDS-PAGE. The gel was dried and autoradiographed.

H1299 xenografts = assay: NSCLC xenograft tumor growth; type: in vivo, athymic nude mice; conditions: 4 mg/kg or 8 mg/kg, 5 consecutive days; measured for 15 days; vs control
Protocol: The antitumor effect of deguelin was tested using an iii vivo model. H1299 cells were injected into the dorsal flank of athymic nude mice. Once tumor volume reached 40-80 mm^3, treatment for 5 consecutive days with 4 or 8 mg/kg deguelin began. Tumors were measured every other day for 15 days. […] The results are expressed as the mean (±SD) tumor volume (calculated from at least 5 mice) relative to the initial volume.

[2] = system: breast, prostate, head & neck and ovarian cancer cells; assay: MTT assay, growth inhibition in other cancer cells; type: cell-based; conditions: 10^−9 M to 10^−6 M, 3 or 5 days; more effective at 10^−7 M to 10^−6 M
Protocol: It was next determined whether deguelin can inhibit cell growth in cancer cells other than lung cancer cells. Cancer cells, such as breast, prostate, head & neck and ovarian cells were treated with 10^−6 M, 10^−7 M, 10^−8 M, or 10^−9 M deguelin for 3 or 5 days, and cell growth inhibition analyzed by MTT assay.

COc1cc2c(cc1OC)[C@@H]1C(=O)c3ccc4c(c3O[C@@H]1CO2)C=CC(C)(C)O4 [Deguelin]
Avg. % con (H596; deguelin 10^−6M): 0.62 % con | MTT value, mean of replicates (unheaded line) (H596; deguelin 10^−6M): 0.290 | MTT value, replicate (unheaded line) (H596; deguelin 10^−6M): 0.29 and 0.298 and 0.281 | Avg. % con (H596; deguelin 10^−8M): 0.67 % con | MTT value, mean of replicates (unheaded line) (H596; deguelin 10^−8M): 0.314 | MTT value, replicate (unheaded line) (H596; deguelin 10^−8M): 0.324 and 0.311 and 0.307 | Avg. % con (H596; deguelin 10^−10M): 0.67 % con | MTT value, mean of replicates (unheaded line) (H596; deguelin 10^−10M): 0.313 | MTT value, replicate (unheaded line) (H596; deguelin 10^−10M): 0.314 and 0.338 and 0.287 | Avg. % con (H596; deguelin 10^−12M): 0.76 % con | MTT value, mean of replicates (unheaded line) (H596; deguelin 10^−12M): 0.358 | MTT value, replicate (unheaded line) (H596; deguelin 10^−12M): 0.386 and 0.372 and 0.317 | Avg. % con (Cal6; deguelin 10^−6M): 0.24 % con | MTT value, mean of replicates (unheaded line) (Cal6; deguelin 10^−6M): 0.094 | MTT value, replicate (unheaded line) (Cal6; deguelin 10^−6M): 0.098 and 0.106 and 0.078 | Avg. % con (Cal6; deguelin 10^−8M): 0.88 % con | MTT value, mean of replicates (unheaded line) (Cal6; deguelin 10^−8M): 0.345 | MTT value, replicate (unheaded line) (Cal6; deguelin 10^−8M): 0.356 and 0.338 and 0.341 | Avg. % con (Cal6; deguelin 10^−10M): 0.93 % con | MTT value, mean of replicates (unheaded line) (Cal6; deguelin 10^−10M): 0.364 | MTT value, replicate (unheaded line) (Cal6; deguelin 10^−10M): 0.332 and 0.386 and 0.374 | Avg. % con (Cal6; deguelin 10^−12M): 0.92 % con | MTT value, mean of replicates (unheaded line) (Cal6; deguelin 10^−12M): 0.360 | MTT value, replicate (unheaded line) (Cal6; deguelin 10^−12M): 0.357 and 0.358 and 0.366 | Avg. % con (Chago; deguelin 10^−6M): 0.56 % con | MTT value, mean of replicates (unheaded line) (Chago; deguelin 10^−6M): 0.086 | MTT value, replicate (unheaded line) (Chago; deguelin 10^−6M): 0.094 and 0.086 and 0.078 | Avg. % con (Chago; deguelin 10^−8M): 0.65 % con | MTT value, mean of replicates (unheaded line) (Chago; deguelin 10^−8M): 0.1 | MTT value, replicate (unheaded line) (Chago; deguelin 10^−8M): 0.101 and 0.093 and 0.106 | Avg. % con (Chago; deguelin 10^−10M): 1.24 % con | MTT value, mean of replicates (unheaded line) (Chago; deguelin 10^−10M): 0.191 | MTT value, replicate (unheaded line) (Chago; deguelin 10^−10M): 0.192 and 0.184 and 0.197 | Avg. % con (Chago; deguelin 10^−12M): 1.18 % con | MTT value, mean of replicates (unheaded line) (Chago; deguelin 10^−12M): 0.182 | MTT value, replicate (unheaded line) (Chago; deguelin 10^−12M): 0.175 and 0.179 and 0.192 | Avg. % con (H322; deguelin 10^−6M): 0.49 % con | MTT value, mean of replicates (unheaded line) (H322; deguelin 10^−6M): 0.094 | MTT value, replicate (unheaded line) (H322; deguelin 10^−6M): 0.096 and 0.087 and 0.1 | Avg. % con (H322; deguelin 10^−8M): 0.89 % con | MTT value, mean of replicates (unheaded line) (H322; deguelin 10^−8M): 0.173 | MTT value, replicate (unheaded line) (H322; deguelin 10^−8M): 0.172 (2×) and 0.174 | Avg. % con (H322; deguelin 10^−10M): 0.84 % con | MTT value, mean of replicates (unheaded line) (H322; deguelin 10^−10M): 0.163 | MTT value, replicate (unheaded line) (H322; deguelin 10^−10M): 0.153 and 0.16 and 0.177 | Avg. % con (H322; deguelin 10^−12M): 0.86 % con | MTT value, mean of replicates (unheaded line) (H322; deguelin 10^−12M): 0.166 | MTT value, replicate (unheaded line) (H322; deguelin 10^−12M): 0.168 and 0.16 and 0.17 | IC50 [1]: < 1 nM | PI3K activity (lipid kinase assay) (PI3K): decreased | MAPK activity (ERK1/2 (MAPK)): not affected | growth of NSCLC xenografts (tumor volume relative to initial volume) (H1299 xenografts): inhibited | cell proliferation in breast, prostate, head & neck and ovarian cancer cells [2]: inhibit cell proliferation in these cells in a dose dependent manner
